Source: ChEMBL document CHEMBL5465560, “Selectivity Literature for EUbOPEN Chemogenomic Library” (2024)
Values belong to the compound of their own block, whether it stands above or below them.

Columns and labels:
[1] = biological target: Tyrosine-protein kinase BAZ1B (Homo sapiens) (UniProt Q9UIG0); test: Selectivity interaction (Human bromodomain panel (DSF assay)) EUB0000233b BAZ1B
[2] = biological target: Serine/threonine-protein kinase OSR1 (Homo sapiens) (UniProt O95747); test: Selectivity interaction (KinomeScan (DiscoverX)) EUB0000666a OXSR1; settings: at 10 µM
Chain of Serine/threonine-protein kinase OSR1 (Homo sapiens) (O95747 2-527 limits assumed): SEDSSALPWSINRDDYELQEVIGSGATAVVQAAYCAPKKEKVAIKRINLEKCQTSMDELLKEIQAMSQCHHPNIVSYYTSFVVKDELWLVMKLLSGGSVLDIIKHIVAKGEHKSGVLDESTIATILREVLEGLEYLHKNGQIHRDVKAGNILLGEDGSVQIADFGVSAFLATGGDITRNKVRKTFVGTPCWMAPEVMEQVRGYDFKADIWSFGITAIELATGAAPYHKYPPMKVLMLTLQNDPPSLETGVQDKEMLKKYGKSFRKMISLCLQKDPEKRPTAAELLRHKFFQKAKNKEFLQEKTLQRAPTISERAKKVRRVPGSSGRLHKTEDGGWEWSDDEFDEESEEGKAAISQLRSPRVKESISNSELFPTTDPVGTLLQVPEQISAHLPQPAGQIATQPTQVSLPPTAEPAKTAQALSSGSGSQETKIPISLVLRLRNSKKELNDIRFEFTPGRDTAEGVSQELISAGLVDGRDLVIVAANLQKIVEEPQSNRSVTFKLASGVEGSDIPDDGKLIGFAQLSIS

[3] = biological target: Serine/threonine-protein kinase MRCK alpha (Homo sapiens) (UniProt Q5VT25); settings: at 10 µM
[4] = biological target: Protein-tyrosine kinase 2-beta (Homo sapiens) (UniProt Q14289); test: Selectivity interaction (ActivX KiNativ screen (kinase selectivity in THP-1 cell lysates)) EUB0000639a PTK2B; type: subcellular; settings: lysate, at 5 µM
Chain of Protein-tyrosine kinase 2-beta (Homo sapiens) (Q14289 whole entry, looked up): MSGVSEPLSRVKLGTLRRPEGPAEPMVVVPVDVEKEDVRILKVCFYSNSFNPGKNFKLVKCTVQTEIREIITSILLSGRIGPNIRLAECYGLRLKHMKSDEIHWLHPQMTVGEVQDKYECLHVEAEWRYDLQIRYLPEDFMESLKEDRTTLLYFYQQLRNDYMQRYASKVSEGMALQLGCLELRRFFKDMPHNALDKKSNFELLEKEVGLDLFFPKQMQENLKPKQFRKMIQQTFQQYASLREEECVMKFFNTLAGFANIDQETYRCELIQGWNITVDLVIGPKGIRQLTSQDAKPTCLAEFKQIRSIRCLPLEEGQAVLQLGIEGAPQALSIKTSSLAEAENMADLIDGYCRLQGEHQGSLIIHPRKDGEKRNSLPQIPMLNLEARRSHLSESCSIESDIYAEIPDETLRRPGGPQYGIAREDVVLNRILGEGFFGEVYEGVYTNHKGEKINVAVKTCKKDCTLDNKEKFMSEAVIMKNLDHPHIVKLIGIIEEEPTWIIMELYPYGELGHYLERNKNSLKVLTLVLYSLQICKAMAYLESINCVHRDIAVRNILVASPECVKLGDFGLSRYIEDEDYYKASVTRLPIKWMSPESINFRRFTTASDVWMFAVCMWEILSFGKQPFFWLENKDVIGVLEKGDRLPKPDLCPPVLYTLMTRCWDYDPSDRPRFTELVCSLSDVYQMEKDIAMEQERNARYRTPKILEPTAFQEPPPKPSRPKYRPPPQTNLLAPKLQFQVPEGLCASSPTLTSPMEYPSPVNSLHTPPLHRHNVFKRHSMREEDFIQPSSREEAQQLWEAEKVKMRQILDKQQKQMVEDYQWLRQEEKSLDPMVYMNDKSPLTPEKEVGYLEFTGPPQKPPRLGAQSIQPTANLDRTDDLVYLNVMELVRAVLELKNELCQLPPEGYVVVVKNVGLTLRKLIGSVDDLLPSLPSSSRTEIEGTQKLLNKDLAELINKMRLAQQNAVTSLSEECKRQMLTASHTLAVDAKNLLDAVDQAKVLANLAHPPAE

[5] = system: Epidermal growth factor receptor (Homo sapiens), P00533 [UNDEFINED MUTATION]; test: Selectivity interaction (ProQinase) EUB0000171b EGFR; settings: at 5 µM
Chain of Epidermal growth factor receptor (Homo sapiens), P00533 [UNDEFINED MUTATION] (P00533 whole entry, looked up, change not shown): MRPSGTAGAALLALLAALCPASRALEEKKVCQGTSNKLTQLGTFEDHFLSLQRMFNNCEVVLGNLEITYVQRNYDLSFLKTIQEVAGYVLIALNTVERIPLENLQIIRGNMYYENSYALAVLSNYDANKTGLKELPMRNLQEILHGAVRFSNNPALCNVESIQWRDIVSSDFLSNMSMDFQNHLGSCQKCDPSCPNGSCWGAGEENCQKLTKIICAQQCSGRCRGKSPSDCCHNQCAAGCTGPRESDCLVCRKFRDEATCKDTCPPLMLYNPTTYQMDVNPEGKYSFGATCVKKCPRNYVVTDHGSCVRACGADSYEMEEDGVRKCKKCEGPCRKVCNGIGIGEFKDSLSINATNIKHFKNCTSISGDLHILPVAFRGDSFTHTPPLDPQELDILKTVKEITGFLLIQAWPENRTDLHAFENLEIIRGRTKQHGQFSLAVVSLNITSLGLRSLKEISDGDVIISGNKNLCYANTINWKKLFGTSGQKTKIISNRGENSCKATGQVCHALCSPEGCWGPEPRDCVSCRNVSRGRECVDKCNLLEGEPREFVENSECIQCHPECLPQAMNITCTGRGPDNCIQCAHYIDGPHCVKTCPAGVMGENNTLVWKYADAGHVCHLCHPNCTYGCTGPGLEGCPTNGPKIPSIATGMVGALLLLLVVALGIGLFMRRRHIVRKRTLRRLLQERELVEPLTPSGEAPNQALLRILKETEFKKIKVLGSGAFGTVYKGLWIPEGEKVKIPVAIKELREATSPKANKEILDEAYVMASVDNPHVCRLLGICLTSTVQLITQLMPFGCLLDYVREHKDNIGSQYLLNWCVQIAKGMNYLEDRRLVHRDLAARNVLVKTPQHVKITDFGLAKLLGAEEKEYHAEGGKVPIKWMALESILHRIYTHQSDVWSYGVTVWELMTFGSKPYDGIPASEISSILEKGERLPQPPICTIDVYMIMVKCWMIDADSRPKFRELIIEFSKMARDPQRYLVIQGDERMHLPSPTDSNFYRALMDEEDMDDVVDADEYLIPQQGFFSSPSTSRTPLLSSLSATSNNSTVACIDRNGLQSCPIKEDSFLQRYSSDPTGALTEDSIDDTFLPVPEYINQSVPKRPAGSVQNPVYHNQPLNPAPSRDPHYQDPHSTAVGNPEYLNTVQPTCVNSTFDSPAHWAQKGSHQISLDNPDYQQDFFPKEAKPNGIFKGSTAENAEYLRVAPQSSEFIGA

[6] = biological target: T1, SNF-related serine/threonine-protein kinase (Homo sapiens) (UniProt Q9NRH2); test: Selectivity interaction (KinomeScan (DiscoverX)) EUB0000695a SNRK; settings: at 100 nM
T1 sequence (whole entry): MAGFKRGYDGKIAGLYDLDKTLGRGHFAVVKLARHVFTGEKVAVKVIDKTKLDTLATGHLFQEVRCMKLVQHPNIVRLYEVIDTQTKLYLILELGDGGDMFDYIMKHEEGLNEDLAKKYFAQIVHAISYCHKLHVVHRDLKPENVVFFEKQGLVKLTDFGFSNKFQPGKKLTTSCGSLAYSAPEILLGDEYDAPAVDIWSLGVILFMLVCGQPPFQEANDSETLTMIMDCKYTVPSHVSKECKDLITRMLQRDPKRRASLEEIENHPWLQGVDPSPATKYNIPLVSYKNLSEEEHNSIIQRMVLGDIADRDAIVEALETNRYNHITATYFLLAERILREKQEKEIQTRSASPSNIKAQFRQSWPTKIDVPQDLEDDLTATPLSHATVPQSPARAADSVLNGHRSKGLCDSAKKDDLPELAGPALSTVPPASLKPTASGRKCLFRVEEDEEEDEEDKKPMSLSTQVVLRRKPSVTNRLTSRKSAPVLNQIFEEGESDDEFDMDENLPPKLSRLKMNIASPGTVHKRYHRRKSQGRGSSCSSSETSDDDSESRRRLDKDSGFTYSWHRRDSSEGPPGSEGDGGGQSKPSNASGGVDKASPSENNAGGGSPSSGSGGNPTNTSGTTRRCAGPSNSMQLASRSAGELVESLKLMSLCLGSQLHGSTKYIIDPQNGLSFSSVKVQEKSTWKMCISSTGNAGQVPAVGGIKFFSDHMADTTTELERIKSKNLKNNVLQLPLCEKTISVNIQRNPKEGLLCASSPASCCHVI

[7] = biological target: Mitogen-activated protein kinase kinase kinase 9 (Homo sapiens) (UniProt P80192); test: Selectivity interaction (KinomeScan (DiscoverX)) EUB0000595a MAP3K9; settings: at 10 µM
[8] = biological target: T2, Phosphatidylinositol 5-phosphate 4-kinase type-2 beta (Homo sapiens) (UniProt P78356); settings: at 10 µM
T2 sequence (whole entry): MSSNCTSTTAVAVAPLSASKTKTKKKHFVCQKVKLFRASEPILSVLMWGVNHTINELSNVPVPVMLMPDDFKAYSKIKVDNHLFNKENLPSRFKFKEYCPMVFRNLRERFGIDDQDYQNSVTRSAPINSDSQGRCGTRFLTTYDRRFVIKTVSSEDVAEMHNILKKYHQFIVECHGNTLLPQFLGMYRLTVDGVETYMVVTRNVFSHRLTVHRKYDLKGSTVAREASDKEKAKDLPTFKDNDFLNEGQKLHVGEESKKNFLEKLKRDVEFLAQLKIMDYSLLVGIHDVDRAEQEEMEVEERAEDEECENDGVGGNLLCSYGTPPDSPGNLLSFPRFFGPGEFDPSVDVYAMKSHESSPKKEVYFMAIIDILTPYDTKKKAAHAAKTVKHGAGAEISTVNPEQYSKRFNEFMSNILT

[9] = biological target: Serine/threonine-protein kinase 32C (Homo sapiens) (UniProt Q86UX6); test: Selectivity interaction (KinomeScan (DiscoverX)) EUB0000045b STK32C
Chain of Serine/threonine-protein kinase 32C (Homo sapiens) (Q86UX6 whole entry): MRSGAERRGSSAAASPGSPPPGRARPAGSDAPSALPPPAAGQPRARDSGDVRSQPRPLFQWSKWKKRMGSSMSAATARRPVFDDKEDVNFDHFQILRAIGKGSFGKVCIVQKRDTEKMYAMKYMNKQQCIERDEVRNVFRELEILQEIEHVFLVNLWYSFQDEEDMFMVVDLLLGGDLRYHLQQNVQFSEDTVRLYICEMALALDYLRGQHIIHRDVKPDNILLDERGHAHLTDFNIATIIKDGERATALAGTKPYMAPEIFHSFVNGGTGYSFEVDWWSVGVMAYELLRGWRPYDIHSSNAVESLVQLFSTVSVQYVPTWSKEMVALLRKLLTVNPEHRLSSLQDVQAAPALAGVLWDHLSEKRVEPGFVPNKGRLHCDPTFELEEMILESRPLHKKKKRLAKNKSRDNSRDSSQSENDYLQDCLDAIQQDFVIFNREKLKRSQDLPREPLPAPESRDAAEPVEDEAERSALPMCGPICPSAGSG

[10] = biological target: DNA (cytosine-5)-methyltransferase 1 (Homo sapiens) (UniProt P26358); settings: at 10 µM
Chain of DNA (cytosine-5)-methyltransferase 1 (Homo sapiens) (P26358 whole entry): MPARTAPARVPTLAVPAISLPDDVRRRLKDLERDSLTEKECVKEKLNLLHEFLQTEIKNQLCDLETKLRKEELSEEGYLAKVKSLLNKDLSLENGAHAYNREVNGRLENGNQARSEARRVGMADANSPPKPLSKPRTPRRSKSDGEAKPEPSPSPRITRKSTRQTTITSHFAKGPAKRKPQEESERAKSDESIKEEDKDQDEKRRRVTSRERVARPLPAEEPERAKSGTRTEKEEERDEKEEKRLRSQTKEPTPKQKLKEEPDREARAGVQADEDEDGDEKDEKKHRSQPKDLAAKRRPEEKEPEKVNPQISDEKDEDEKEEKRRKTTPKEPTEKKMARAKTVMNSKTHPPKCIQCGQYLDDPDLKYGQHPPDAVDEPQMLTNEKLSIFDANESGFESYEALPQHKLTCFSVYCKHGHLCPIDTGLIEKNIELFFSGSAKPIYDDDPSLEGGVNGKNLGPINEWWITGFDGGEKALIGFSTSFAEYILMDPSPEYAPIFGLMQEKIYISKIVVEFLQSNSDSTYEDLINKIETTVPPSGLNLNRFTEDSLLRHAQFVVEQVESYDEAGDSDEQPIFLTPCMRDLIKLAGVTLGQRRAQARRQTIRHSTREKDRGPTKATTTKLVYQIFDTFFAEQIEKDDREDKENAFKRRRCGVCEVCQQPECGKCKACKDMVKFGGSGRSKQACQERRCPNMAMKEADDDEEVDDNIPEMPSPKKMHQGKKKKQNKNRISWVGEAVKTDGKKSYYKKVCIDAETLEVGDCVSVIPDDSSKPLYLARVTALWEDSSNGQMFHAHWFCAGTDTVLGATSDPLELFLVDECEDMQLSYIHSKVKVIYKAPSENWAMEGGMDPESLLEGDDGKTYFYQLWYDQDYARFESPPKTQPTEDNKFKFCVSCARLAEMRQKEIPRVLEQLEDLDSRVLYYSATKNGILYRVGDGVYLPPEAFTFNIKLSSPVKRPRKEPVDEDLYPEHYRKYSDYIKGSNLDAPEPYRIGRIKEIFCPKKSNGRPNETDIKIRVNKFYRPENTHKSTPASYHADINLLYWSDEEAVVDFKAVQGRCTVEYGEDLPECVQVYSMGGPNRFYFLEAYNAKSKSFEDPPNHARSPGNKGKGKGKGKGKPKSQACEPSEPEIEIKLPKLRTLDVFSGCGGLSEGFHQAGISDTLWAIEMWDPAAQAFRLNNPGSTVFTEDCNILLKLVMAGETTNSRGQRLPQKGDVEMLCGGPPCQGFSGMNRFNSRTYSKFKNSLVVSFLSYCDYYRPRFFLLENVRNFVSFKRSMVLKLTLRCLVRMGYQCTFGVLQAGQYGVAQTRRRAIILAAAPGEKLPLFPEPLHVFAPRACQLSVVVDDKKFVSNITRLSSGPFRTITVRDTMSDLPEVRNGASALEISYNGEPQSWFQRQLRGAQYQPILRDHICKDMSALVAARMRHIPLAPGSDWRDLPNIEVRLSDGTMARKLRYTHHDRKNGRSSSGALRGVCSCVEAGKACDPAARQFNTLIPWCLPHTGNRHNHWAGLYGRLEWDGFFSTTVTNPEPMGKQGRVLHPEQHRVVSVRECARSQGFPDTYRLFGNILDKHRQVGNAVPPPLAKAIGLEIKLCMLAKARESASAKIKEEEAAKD

[11] = biological target: T3, Ephrin type-B receptor 2 (Homo sapiens) (UniProt P29323); test: Selectivity interaction (KinomeScan (DiscoverX)) EUB0001619a EPHB2; settings: at 1 µM
T3 sequence (whole entry): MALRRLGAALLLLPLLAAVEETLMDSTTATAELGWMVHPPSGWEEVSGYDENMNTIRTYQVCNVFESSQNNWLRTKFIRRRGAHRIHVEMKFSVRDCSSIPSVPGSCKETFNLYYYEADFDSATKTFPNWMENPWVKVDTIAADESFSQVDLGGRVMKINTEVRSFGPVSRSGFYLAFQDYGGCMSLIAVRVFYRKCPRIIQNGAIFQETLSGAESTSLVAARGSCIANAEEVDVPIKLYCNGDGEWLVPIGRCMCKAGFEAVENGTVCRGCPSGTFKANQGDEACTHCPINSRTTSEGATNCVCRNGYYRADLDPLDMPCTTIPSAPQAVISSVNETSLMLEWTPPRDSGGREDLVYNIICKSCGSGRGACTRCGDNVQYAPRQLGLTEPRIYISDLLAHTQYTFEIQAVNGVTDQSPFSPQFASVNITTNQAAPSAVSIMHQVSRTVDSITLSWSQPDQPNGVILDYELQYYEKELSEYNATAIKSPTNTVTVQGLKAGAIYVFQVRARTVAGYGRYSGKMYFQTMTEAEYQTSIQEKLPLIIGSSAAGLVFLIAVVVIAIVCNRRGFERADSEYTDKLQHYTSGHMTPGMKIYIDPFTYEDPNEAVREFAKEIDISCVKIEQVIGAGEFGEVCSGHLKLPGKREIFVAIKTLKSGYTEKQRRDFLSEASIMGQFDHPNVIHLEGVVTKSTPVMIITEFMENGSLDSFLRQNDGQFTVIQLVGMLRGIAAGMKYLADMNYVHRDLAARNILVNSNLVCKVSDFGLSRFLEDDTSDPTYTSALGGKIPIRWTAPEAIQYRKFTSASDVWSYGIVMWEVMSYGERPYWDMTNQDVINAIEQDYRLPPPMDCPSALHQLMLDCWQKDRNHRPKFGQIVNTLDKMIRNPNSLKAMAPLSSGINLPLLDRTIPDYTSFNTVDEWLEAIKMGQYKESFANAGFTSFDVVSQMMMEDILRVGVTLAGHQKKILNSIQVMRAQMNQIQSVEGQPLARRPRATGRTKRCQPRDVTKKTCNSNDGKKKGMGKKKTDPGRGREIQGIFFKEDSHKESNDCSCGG

[12] = biological target: Tyrosine-protein kinase JAK2 (Homo sapiens, UniProt O60674); test: Selectivity interaction (ActivX KiNativ screen (ex vivo kinase selectivity in human PBMCs)) EUB0001619a JAK2; type: cell-based; settings: PBMC, at 1 µM

SMILES: O=C(NOC[C@H](O)CO)c1ccc(F)c(F)c1Nc1ccc(I)cc1F
% of control [2]: 100%

SMILES: Cc1cc(F)c(C(=O)Nc2cccc(-c3nncn3C(C)C)n2)cc1-n1cnc(C2CC2)c1
% of control [6]: 97%

SMILES: COCC(=O)NC/C=C/c1ccc2ncnc(Nc3ccc(Oc4ccc(C)nc4)c(C)c3)c2c1 [CP-724714]
% of control [7]: 74%
% of control [8]: 100%

SMILES: C=CC(=O)Nc1cc(-n2c(=O)ccc3cnc4ccc(-c5ccc(NS(C)(=O)=O)cc5)cc4c32)ccc1C
% of control ([9]; at 1 µM): 100%
% of control ([9]; at 10 µM): 100%

SMILES: N#Cc1cccc(-c2c[nH]c3ncnc(N4CCOCC4)c23)c1
% of control [11]: 92%
% of inhibition [12]: 17%

More lines, now with the values ahead:

dTM [1]: < 2 K
SMILES: CN(C)CCCOc1ccc(-c2cc(NCCCn3cccn3)nc(S(C)(=O)=O)n2)cc1

% of control [3]: 100%
SMILES: CCN(CC)CCCCNc1ncc2cc(-c3cc(OC)cc(OC)c3)c(NC(=O)NC(C)(C)C)nc2n1

% of inhibition [4]: 11.6%
SMILES: CC[C@@H]1[C@H](F)C(=O)N[C@@H]1COc1nccc2cc(C(N)=O)c(OC)cc12 [ZIMLOVISERTIB]

% of control [5]: 86%
SMILES: C=CC(=O)Nc1cccc(C(=O)Nc2ccc(Nc3cc(-c4[nH]c(SC)nc4C)ccn3)cc2)c1

% activity [10]: > 90%
SMILES: CNCCN1CCC(c2cc(CN(C)C(=O)c3cccc(Oc4ccccc4)c3)ccn2)CC1
